Assay results published in US7781420B2, “Use of clodronic acid for treatment podotrochlosis” (Omnimedic GbR, priority 2005, dated 2010).

Experiments:
[1] = system: horses who suffer from podotrochlosis; test: treatment of podotrochlosis with associated osteoporosis in horses by two to five intramuscular injections; assay type: in vivo, horse; conditions: for therapeutic success in the treatment of podotrochlosis with associated osteoporosis: intramuscular injections
Experimental: To achieve the desired therapeutic success or else prophylactic success, a dosage regimen in which the pharmaceutical is administered by two to five intramuscular injections within a period of up to several days, such as approximately 3 consecutive days, but preferably within one day, must be adhered to. Here, the administration of the pharmaceutical may be effected in a dosage of, per injection, 0.125-2.5 mg, preferably 0.25-1 mg, particularly preferably approximately 0.6 mg of active ingredient/kg body weight. For a horse with a weight of 500 kg, a total dose of 250-2500 mg, preferably 400-1500 mg, especially preferably approximately 800 to 1000 mg of active ingredient, distributed over 2 to 5 injections, preferably 3 injections, is aimed at. With a horse with a weight of 500 kg, it is therefore especially preferable to administer 900 mg of active ingredient, divided over 3 injections of 300 mg each, within one day. The pharmaceutical is injected intramuscularly, preferably into the neck, chest and gluteal muscles of the horse. In the case of 3 injections, it is preferred to administer two injections into the neck muscles (on the left and right side), especially preferably approximately one hand's width under the crest and approximately one hand's width above the scapula, and one injection into the breast muscles. The 2 to 5 injections are expediently given directly one after the other.
After approximately 14 days, a pronounced improvement of the clinical symptoms is observed in nearly all horses. After approximately 4-6 weeks, the clinical picture has stabilized and established such that the therapeutic success can be defined. After approximately 10 to 14 months, the clinical symptoms will, as a rule, deteriorate. The treatment may then be repeated once or more than once, with equally good success. In this manner, the treated horses can be kept free from lameness over several years.
For example, the therapeutic success in a gelding who had suffered from podotrochlosis and who had not been able to be ridden, let alone used as a sports horses for about 3 years was so good after employing the pharmaceutical described in accordance with the invention that the gelding could afterwards be used intensively and successfully for 6 years as a showjumper.

podotrochlosis = conditions: in vivo; cited from earlier work

SMILES | side effects ([1]; at least 350 horses pretreated with conventional therapies without success) | time until pronounced improvement of the clinical symptoms is observed in nearly all horses ([1]; horses, after treatment) | time until the clinical picture has stabilized and established ([1]; horses, after treatment) | therapeutic success in the treatment of podotrochlosis with associated osteoporosis ([1]; horses) | therapeutic success in the treatment of podotrochlosis with associated osteoporosis ([1]; horses, listed as pharmaceutical described in accordance with the invention) | freedom from lameness ([1]; many of the treated horses, regular use of the pharmaceutical) | time used intensively and successfully as a showjumper after treatment ([1]; single gelding, not able to be ridden for about 3 years before treatment) | effect on podotrochlosis (podotrochlosis) | side effects (podotrochlosis)
O=P(O)(O)C(Cl)(Cl)P(=O)(O)O [clodronic acid, (dichloromethylene)bis(phosphonic acid)] | without suffering side effects | approximately 14 days | 4-6 weeks | outstanding therapeutic successes | successful therapy | free from lameness for several years | 6 years |  | 
O=P(O)(O)C(Sc1ccc(Cl)cc1)P(=O)(O)O [tiludronate] |  |  |  |  |  |  |  | healing effect | substantial side effects such as colic
